Laboratory results reported in US20220378042A1, “Herbicide combinations comprising glufosinate and oxyfluorfen” (BASF SE, priority 2020, published 2022).
Where two headings read alike, the source gives them in different places.

Legend:
[1] = test system: Chenopodium album; experiment: greenhouse post-emergence herbicidal activity on Chenopodium album; format: in vivo; details: for inhibition at 10.2 g/ha: 10.2 g ai/ha, scale 0-100% damage vs untreated, read-out: Solo Oxyfluorfen % activity; for inhibition at 327 g/ha: read-out: Solo Glufosinate % activity
From the text: (§1) For the post-emergence treatment, the test plants were first grown to 3 to 4 inch (7.6 to 10.2 cm) tall, and only then treated. Here, the herbicidal compositions were suspended or emulsified in water as distribution medium and sprayed using finely distributing nozzles.
(§2) The herbicide compounds applied in the examples were used as commercially available formulations which have been diluted with deionized water to a suitable concentration.
(§3) Oxyfluorfen (commercial product name: Goal 2XL) was used as an emulsifiable concentrate having an active ingredient concentration of 240 g/l. Glufosinate (commercial product name: Liberty) was used as an aqueous soluble liquid of glufosinate ammonium having an active ingredient concentration of 280 g/l. Adjuvants of ammonium sulfate (AMS) and non-ionic surfactant (NIS) were added in all treatments. AMS and NIS were AMS Liquid and Induce at rates of 1680 g/ha and 0.25% (v/v), respectively.
(§4) The test period extended over 28 days after treatment (DAT). During this time, the plants were tended and their response to the individual treatments was evaluated.
(§5) The evaluation for the damage caused by the chemical compositions was carried out using a scale from 0 to 100%, compared to the untreated control plants. Here, 0 means no damage and 100 means complete destruction of the plants.
(§6) The plants used in the greenhouse experiments belonged to the following species:
(§7) E=X+Y−(X·Y/100) • where X=effect in percent using Oxyfluorfen at an application rate a; • Y=effect in percent using glufosinate at application rate b; • E=expected effect (in %) of Oxyfluorfen plus glufosinate at application rates a+b.
(§8) The value E corresponds to the effect (plant damage or injury) which is to be expected if the activity of the individual compounds is just additive. If the observed effect is higher than the value E calculated according to Colby, a synergistic effect is present.

[2] = test system: Echinochloa crus-galli; experiment: greenhouse post-emergence herbicidal activity on Echinochloa crus-galli; format: in vivo; details: for inhibition at 10.2 g/ha: 10.2 g ai/ha, scale 0-100% damage vs untreated, read-out: Solo Oxyfluorfen % activity; for inhibition at 327 g/ha: read-out: Solo Glufosinate % activity
From the text: as §1, §2, §3, §4, §5, §6, §7, §8

`CCOc1cc(Oc2ccc(C(F)(F)F)cc2Cl)ccc1[N+](=O)[O-]` [Oxyfluorfen] showed an inhibition at 10.2 g/ha ([1]; 168 h, 7 DAT) of 33%, an inhibition at 10.2 g/ha ([1]; 336 h, 14 DAT) of 25% and an inhibition at 10.2 g/ha ([1]; 504 h, 21 DAT) of 30%. For the same molecule, the inhibition at 10.2 g/ha ([2]; 168 h, 7 DAT) was 28%, the inhibition at 10.2 g/ha ([2]; 336 h, 14 DAT) was 15% and the inhibition at 10.2 g/ha ([2]; 504 h, 21 DAT) was 20%.

With `CP(=O)(O)CCC(N)C(=O)O` (racemic) [Glufosinate, (2RS)-2-amino-4-[hydroxy(methyl)phosphinoyl]butyric acid] the inhibition at 327 g/ha ([1]; 168 h) was 81%, the inhibition at 327 g/ha ([1]; 336 h) was 75% and the inhibition at 327 g/ha ([1]; 504 h) was 78%. The inhibition at 327 g/ha ([2]; 168 h) was 84%, the inhibition at 327 g/ha ([2]; 336 h) was 25% and the inhibition at 327 g/ha ([2]; 504 h) was 20%.
